US20230022157A1 (Achillion Pharmaceuticals, Inc., priority 2018, published 2023)
pIC50: −log10 of the molar value.

target: T1, Human Factor D (Homo sapiens, UniProt P00746); test: Human Factor D Assay; format: biochemical; details: Human Factor D 80 nM, substrate Z-L-Lys-SBzl, assay of Example 3; read-out: IC50 (Stars)
T1 construct: purified from human serum; purchased Complement Technology, Inc; host or cells: human serum (natural protein, not recombinant)
Procedure: Human Factor D (purified from human serum, Complement Technology, Inc.) at 80 nM final concentration is incubated with test compound at various concentrations for 5 min at room temperature in 50 mM Tris, 1M NaCl, pH 7.5. A synthetic substrate Z-L-Lys-SBzl and DTNB (Ellman's reagent) are added to final concentrations of 100 μM each. […] IC50 values are calculated by nonlinear regression of complement Factor D reaction rates as a function of test compound concentration.

T1 sequence (P00746 26-253): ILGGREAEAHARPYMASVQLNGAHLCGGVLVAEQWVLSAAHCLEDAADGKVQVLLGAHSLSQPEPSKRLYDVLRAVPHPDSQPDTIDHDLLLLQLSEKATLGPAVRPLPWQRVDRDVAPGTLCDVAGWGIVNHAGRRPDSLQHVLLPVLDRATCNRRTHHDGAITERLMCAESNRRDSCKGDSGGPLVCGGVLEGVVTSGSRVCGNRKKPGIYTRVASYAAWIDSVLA

pIC50	Structure (SMILES)
> 6.00	CC(=O)c1nn(CC(=O)N2[C@H](C(=O)Nc3nc(Br)ccc3C)C[C@@]3(C)C[C@@H]23)c2c(C)cc(-c3cnc(C(=O)O)nc3)cc12 [Compound 39, 5-(3-acetyl-1-(2-((1R,3S,5R)-3-((6-bromo-3-methylpyridin-2-yl)carbamoyl)-5-methyl-2-azabicyclo[3.1.0]hexan-2-yl)-2-oxoethyl)-7-methyl-1H-indazol-5-yl)pyrimidine-2-carboxylic acid]

same assay, conditions: Human Factor D 80 nM, substrate Z-L-Lys-SBzl; Table 2; read-out: IC50 (Stars)

pIC50	Structure (SMILES)
> 6.00	CC(=O)c1nn(CC(=O)N2[C@H]3CC[C@H](C3)[C@H]2C(=O)Nc2nc(C(F)(F)F)ccc2C)c2ccc(-c3cnc4cc(C)nn4c3)cc12 [Compound 213, (1S,3S,4R)-2-(2-(3-acetyl-5-(2-methylpyrazolo[1,5-a]pyrimidin-6-yl)-1H-indazol-1-yl)acetyl)-N-(3-methyl-6-(trifluoromethyl)pyridin-2-yl)-2-azabicyclo[2.2.1]heptane-3-carboxamide]
> 6.00	CC(=O)c1nn(CC(=O)N2[C@H]3CC[C@H](C3)[C@H]2C(=O)Nc2nc(Br)c(F)cc2C)c2c(C3CC3)cc(-c3cnc(C)nc3)cc12 [Compound 122, (1S,3S,4R)-2-(2-(3-Acetyl-7-cyclopropyl-5-(2-methylpyrimidin-5-yl)-1H-indazol-1-yl)acetyl)-N-(6-bromo-5-fluoro-3-methylpyridin-2-yl)-2-azabicyclo[2.2.1]heptane-3-carboxamide]
> 6.00	CC(=O)c1nn(CC(=O)N2[C@H](C(=O)N[C@H](C)C(F)(F)F)C[C@@]3(C)C[C@@H]23)c2c(C)cc(-c3cnc(C)nc3)cc12 [Compound 152, (1R,3S,5R)-2-{2-[3-acetyl-7-methyl-5-(2-methylpyrimidin-5-yl)indazol-1-yl]acetyl}-5-methyl-N-[(2R)-1,1,1-trifluoropropan-2-yl]-2-azabicyclo[3.1.0]hexane-3-carboxamide]
> 6.00	CC(=O)c1nn(CC(=O)N2[C@H](C(=O)Nc3nc(Br)ccc3C)C[C@@]3(C)C[C@@H]23)c2ccc(-c3cncc(C4(C(=O)O)CC4)c3)cc12 [Compound 98, 1-(5-(3-acetyl-1-(2-((1R,3S,5R)-3-((6-bromo-3-methylpyridin-2-yl)carbamoyl)-5-methyl-2-azabicyclo[3.1.0]hexan-2-yl)-2-oxoethyl)-1H-indazol-5-yl)pyridin-3-yl)cyclopropane-1-carboxylic acid]
> 6.00	CC(=O)c1nn(CC(=O)N2[C@H](C(=O)NC(C)Cc3cccc(F)c3)C[C@@]3(C)C[C@@H]23)c2c(C)cc(-c3cnc(C)nc3)cc12 (stereo partly drawn) [Compound 187, (1R,3S,5R)-2-{2-[3-acetyl-7-methyl-5-(2-methylpyrimidin-5-yl)indazol-1-yl]acetyl}-N-[1-(3-fluorophenyl)propan-2-yl]-5-methyl-2-azabicyclo[3.1.0]hexane-3-carboxamide]
> 6.00	CC(=O)c1cn(CC(=O)N2[C@H](C(=O)Nc3cncc(Br)n3)C[C@@]3(C)C[C@@H]23)c2c(C)cc(-c3cnc(CO)nc3)cc12 [Compound 77, (1R,3S,5R)-2-(2-(3-acetyl-5-(2-(hydroxymethyl)pyrimidin-5-yl)-7-methyl-1H-indol-1-yl)acetyl)-N-(6-bromopyrazin-2-yl)-5-methyl-2-azabicyclo[3.1.0]hexane-3-carboxamide]

Structure (SMILES)	pIC50
CC(=O)c1nn(CC(=O)N2[C@H](C(=O)Nc3nc(Br)ccc3C)C[C@@]3(C)C[C@@H]23)c2c(C)cc(-c3cnc(C4(O)CC4)nc3)cc12 [Compound 169]	> 6.00
CC(=O)c1nn(CC(=O)N2[C@H](C(=O)N[C@@H]3CCCC[C@@H]3C)C[C@@]3(C)C[C@@H]23)c2c(C)cc(-c3cnc(C)nc3)cc12 [Compound 190, (1R,3S,5R)-2-{2-[3-acetyl-7-methyl-5-(2-methylpyrimidin-5-yl)indazol-1-yl]acetyl}-5-methyl-N-[(1R,2S)-2-methylcyclohexyl]-2-azabicyclo[3.1.0]hexane-3-carboxamide]	> 6.00
CC(=O)c1cn(CC(=O)N2C[C@H]3C[C@H]3[C@H]2C(=O)Nc2nc(Br)c(F)cc2C)c2c(C3CC3)cc(-c3cnc(C)nc3)cc12 [Compound 163]	> 6.00
